Laboratory results as given in BindingDB's records for doi:10.1016/j.ejmech.2013.06.048 (University of Siena, 2013).

assay: Inhibition of estrogen receptor alpha-mediated human MCF7 cell growth inhibition

Row | IC50 | Structure (SMILES)
1 | 64.9 µM | COc1ccc2c(c1)CC[C@@H]1[C@@H]2CC[C@]2(C)[C@@H](OC(C)=O)CC[C@@H]12
2 | 64.9 µM | COc1cc(C(=O)CCc2cc3c(cc2OC)CC[C@@H]2[C@@H]3CC[C@]3(C)[C@@H](O)CC[C@@H]23)ccc1O
3 | 64.9 µM | COc1cc2c(cc1C=O)[C@H]1CC[C@]3(C)[C@@H](OC(C)=O)CC[C@H]3[C@@H]1CC2
